Source: article PMC6273429, “Pharmacokinetics of Tyrosol Metabolites in Rats” (Molecules, 2016)
Where two headings read alike, the source gives them in different places.

Tests used:
[1] = Pharmacokinetics of tyrosol metabolites in rat plasma after single oral dose of tyrosol (HPLC); format: in vivo, Sprague-Dawley rats; settings: for Cmax / Tmax / half-life / AUC(0-t): male, Sprague-Dawley; for AUC(0-t): n = 3, read-out: AUC (0-8h)
Method: To understand the time-dependent changes in the concentration of tyrosol metabolites, the level of metabolites in plasma samples was measured by HPLC at different time points (15, 30, 60, 120, and 240 min) after tyrosol administration. […] The inter- and intra-day precision and accuracy were determined by replicate analysis of the samples at two concentrations of each metabolite: 0.1 and 2 mg/mL tyrosol-4-sulfate. The stability of the metabolites was determined at room temperature over 24 h.
(§1) Male Sprague-Dawley rats with average weights of 250 g were purchased from Orient Bio Inc. (Seoul, Korea) and acclimatized to laboratory conditions comprising a 12:12 h light-dark cycle, temperature of 24 °C, and humidity of 55% for one week. Animals were fed AIN-93G diet and provided water ad libitum during acclimation. On the dosing day, the rats were gavaged with tyrosol (100 or 200 mg/kg) as a suspension in polyethylene glycol. After the oral administration of a single dose of tyrosol to rats, blood samples were collected from the eye of the rats at different time points after dosing (0.25, 0.5, 1, 2, 4, 8, and 16 h). Urine samples were collected just before administration of tyrosol and during 0–1, 1–2, 2–4, 4–8, and 8–24 h after dosing. Liver, lung, heart, spleen, kidney, and epididymal adipose tissues were excised as quickly as possible and stored frozen at −80 °C until use. Animal studies were conducted in accordance with our institutional and national guidelines, and all experimental procedures were approved by the Korea Food Research Institute Animal Care and Use Committee (KFRI-IACUC, #2015-0016).
To 300 µL of serum, 700 µL of methanol was added, followed by vortex mixing for 5 min. After centrifugation at 13,000 rpm for 15 min, the supernatant was collected and injected into the HPLC or LC-MS system.
(§2) HPLC analyses were performed on a Jasco high-performance liquid chromatography (HPLC) system (Jasco Corporation, Tokyo, Japan) equipped with a Jasco UV-2089 plus quaternary gradient pump, Jasco AS-2057 plus intelligent sample injector, Jasco UV-2075 UV/Vis detector, and Borwin chromatography software version 1.5. Separation was achieved using an XTerra RP18 column (4.6 × 250 mm, 5 µM, Waters) and a guard column. Elution was performed at a flow rate of 1.0 mL/min at 30 °C. The solvents for eluent were 1% (v/v) phosphoric acid (solvent A) and acetonitrile (solvent B). The solvent gradient changed according to the following conditions: 100% A to 95% A over 10 min, to 85% A over 10 min, to 70% A over 10 min, to 65% A over 5 min, to 90% A over 5 min, and to 100% A over 5 min, followed by 5 min of maintenance. The UV detector was set at a wavelength of 280 nm.
(§3) A non-compartmental pharmacokinetics analysis for each tyrosol metabolite was performed using PK solution software version 2.0 (Summit Research Services, Montrose, CO, USA). Cmax, Tmax, and T1/2 were estimated from the plasma concentration-time curve. The area under the curve (AUC) for the plasma concentration over time was calculated using the trapezoidal rule.

[2] = Pharmacokinetics of tyrosol metabolites in rat urine after single oral dose of tyrosol (HPLC); format: in vivo, Sprague-Dawley rats; settings: for Tmax / half-life: male, Sprague-Dawley; for Tmax: rat, urine, po
Method: Urine samples were collected at 0–1, 1–2, 2–4, 4–8, and 8–24 h after administration of tyrosol.
as §1, §2, §3

[3] = Tissue distribution of tyrosol-derived metabolites after oral administration of tyrosol; format: in vivo, Sprague-Dawley rats
Method: To study the tissue distribution of tyrosol metabolites, organs were collected at different time points following oral administration of tyrosol. T4S and M2 were detected in each tissue within 1 h after tyrosol administration (Figure 5A,B). […] These findings indicate that the metabolites are mainly excreted by the kidneys through the liver. Specifically, we propose that the rapid uptake of tyrosol is followed by its sulfation in the liver.
Figure 5 Tissue distribution of tyrosol-4-sulfate (A) and M2 (B). Tissue samples (heart, kidney, spleen, lung, liver, epididymal adipose tissue) were collected at different time intervals post-dosing (0, 0.5, 1, 2, 4, 8, and 16 h) and the concentration of tyrosol-4-sulfate and M2 was measured. Each point represents mean ± SD (n = 3).
as §1
Each tissue was thawed, rinsed with ice-cold saline, blotted dry, weighed, and homogenized (1:1, w/v) in water using homogenizer (MP Fastprep instrument, MP Biomedical, Solon, OH, USA). The homogenates (300 µL) were transferred into clean tubes, methanol (700 µL) was added, and the tubes were vortex-mixed for 5 min. The supernatant was collected after centrifugation at 13,000 rpm for 15 min. The supernatant was evaporated to dryness at room temperature under a stream of nitrogen gas. The residue was resuspended in methanol (100 µL).
as §2

[4] = tested on: human hepatoma HepG2 cells; design: method as in PMID 16366672; settings: cited from earlier work

With O=S(=O)(O)Oc1ccc(CCO)cc1 [T4S, tyrosol-4-sulfate] the “time of uptake after oral administration of tyrosol” value [1] was ≤ 1 h, the Cmax ([1]; tyrosol oral 100 mg/kg b.w.) was 7900 ng/mL and the Tmax ([1]; tyrosol oral 100 mg/kg b.w.) was 0.178 h. For the same molecule, the half-life ([1]; tyrosol oral 100 mg/kg b.w.) was 0.23 h, the AUC(0-t) ([1]; tyrosol oral 100 mg/kg b.w.) was 2500 ng·h/mL and the Cmax ([1]; tyrosol oral 200 mg/kg b.w.) was 12100 ng/mL. The Tmax ([1]; tyrosol oral 200 mg/kg b.w.) was 0.177 h, the half-life ([1]; tyrosol oral 200 mg/kg b.w.) was 0.202 h and the AUC(0-t) ([1]; tyrosol oral 200 mg/kg b.w.) was 6600 ng·h/mL. For the same molecule, the “time by which eliminated in urine” value ([2]; after oral tyrosol) was ≤ 12 h, the Tmax ([2]; 100 mg/kg, tyrosol oral 100 mg/kg b.w., read-out: Tmax) was 2 h and the Tmax ([2]; 200 mg/kg, tyrosol oral 200 mg/kg b.w., read-out: Tmax) was 2.9 h. It also gave a Tmax ([2]; 200 mg/kg, tyrosol oral 100 and 200 mg/kg, read-out: Tmax in urine (range over doses)) of 2 to 2.9 h, a half-life ([2]; tyrosol oral 100 mg/kg b.w.) of 1.2 h and a half-life ([2]; tyrosol oral 200 mg/kg b.w.) of 1.2 h. The “time to detection in each tissue” value ([3]; rat tissues after oral tyrosol) was ≤ 1 h, the “detection in epididymal fat and the lungs” value ([3]; rat, after oral tyrosol) was “not detected” and the “time of elimination from organs and tissues” value ([3]; rat, after oral tyrosol) was ≤ 4 h. For the same molecule, the “tissues of greatest deposition / highest concentration by tissue weight” value ([3]; rat, after oral tyrosol) was “liver, followed by the kidney and spleen” and the “tissues of greatest deposition / highest concentration by tissue weight” value ([3]; rat, after oral tyrosol, listed as tyrosol-4-sulfate) was “liver and the kidney”.

In the case of OCCc1ccc(O)cc1 [Tyrosol], the “detection of sulfated metabolites” value [4] is given as “no detection” and the “metabolism to glucuronide conjugates” value [4] is given as “poorly metabolized”.
